Laboratory results as given in US12497614B2, “Compositions and methods for editing beta-globin for treatment of hemaglobinopathies” (Vertex Pharmaceuticals Incorporated, priority 2020, dated 2025).

Legend:
CD34+ HSPCs [1] = test: Cell growth and viability (trypan blue) of edited CD34+ HSPCs during differentiation (Example 5); details: day 0 to day 18 post-editing; inhibitor 1 or 3 μM, i53 1 μg mRNA; data not shown
Experimental: Briefly, frozen CD34+ HSPCs isolated from Plerixafor mobilized peripheral blood, obtained from healthy human donors were thawed. The cells were seeded in CD34 cell media at a cell density of 2×10^5 cells/mL. Cells were cultured at 37° C. under normoxic conditions (i.e., oxygen 20%). Gene-editing was performed following two days of in vitro culture. For editing, 5×10^5 CD34+ HSPCs were electroporated with RNP containing 200 μg/ml Cas9 and 200 μg/ml T107 sgRNA. […] The cells were transduced with AAV.310, 1 hour prior to electroporation, at a dose of 10,000 MOI. The cells were plated in CD34 cell medium containing Compound 296 or Compound 984 immediately following the electroporation, at a concentration of 1 μM or 3 μM for 48 hours. […] Post electroporation cells were resuspended in CD34 cell medium at a density of 2-5×10^5 cells/ml and incubated at 37° C. for 48 hours.
Following editing, cells were differentiated to erythrocytes. Briefly, cells were plated in fresh CD34 media at a density of 2×10^5 cells/mL, and re-plated at similar density in fresh CD34 media on days 3 and 5 post-editing. On day 7 and 10 post-editing, the cells were incubated in Phase II media at a density of 2.5×10^5 and 1×10^6 cells/mL respectively. On day 12 post-editing, the cells were incubated in Phase III media at a density of 1×10^6 cells/mL. On day 14 cells were plated at a density of 2×10^6 cells/ml in Phase III media and maintained till day 18 at 37° C. Cell growth was measured at various time points between day 0 and day 18 post-editing, and the percentage of viable cells was measured by staining with tryphan blue.

[2] = system: HBB gene locus in CD34+ HSPCs; test: HDR efficiency with DNA-PK inhibitors for editing the HBB gene in CD34+ HSPCs; NGS (Example 4); assay type: cell-based, human
Experimental: The cells were transduced with AAV donor template for 1 hour at 37° C. prior to electroporation. AAV-encoded homology donor template referred to as “AAV.310”, which is identified by sequence in Table 8. The AAV.310 donor template encodes a SCD mutation, specifically valine at the 6th codon downstream the HBB start codon (E6V). The cells were treated with AAV at a dose of 10,000 MOI.
Edited cells were evaluated for viability using trypan blue, and for incorporation of gene-edits at 2 days post-electroporation. The efficiency of HDR repair for introducing an E6V mutation in the HBB gene was quantified by NGS assay as described in Example 1, and the frequency of INDELs induced at the T107 cut site was also evaluated by NGS analysis.
The INDELs species identified in edited cells were further evaluated to determine frequency of repair by NHEJ or MMEJ repair pathways. An INDEL of ±1 nt was considered due to NHEJ repair; a deletion of −9 nt was considered due to MMEJ repair based on the microhomology present on either side of the T107 cut site. Based on percentage of total reads corresponding to these INDEL species, the ratio of gene edits due to NHEJ and MMEJ repair was evaluated. […] Thus, reduced frequency of INDELs with treatment of compound 296 or i53 is largely due to suppression of the NHEJ repair pathway.

HBB gene in CD34+ HSPCs = test: In vitro editing with T107 RNP, AAV.310 or AAV.320 and inhibitors before transplantation; NGS and cell growth (Example 6); details: for change in cell growth if cells were edited with the inhibitor: T107 RNP+AAV.310 or AAV.320, data not shown; for frequency of HDR relative to editing with T107 RNP and AAV only / frequency of INDELs relative to editing with T107 RNP and AAV only: i53 1 μg mRNA, Compound 984 1 μM or 3 μM
Experimental: Briefly, frozen CD34+ HSPCs isolated from plerixafor-mobilized peripheral blood obtained from two healthy human donors were thawed and seeded in media with components as described in Example 1. The cells were maintained in culture, and gene-editing was performed following two days of culture. For editing, 5×10^5 CD34+ HSPCs were electroporated with RNP containing 20 μg SpCas9 and 20 μg T107 sgRNA. Electroporation was performed using the CA-137 program of the Lonza Amaxa™ 4D-Nucleofector™. The cells were transduced with AAV.310 or AAV.320 for 1 hour at 37° C. prior to electroporation at a dose of 10,000 MOI. The cells were electroporated and immediately plated in medium containing Compound 984 at 1 μM or 3 μM.
Cells were maintained in culture for two days following electroporation. Fold change in cell-growth between day 0 and day 2 post-electroporation was quantified.
Additionally, gene-edits in HBB were evaluated in CD34+ HSPCs following two days of in vitro culture.

CD34+ HSPCs [3] = test: Erythrocyte functionality: enucleation and cell-surface markers by flow cytometry (Example 5); assay type: cell-based, human; details: T107 RNP+AAV.310 alone or combined with the inhibitor
Experimental: Following editing, cells were differentiated to erythrocytes.
The ability of edited cells to differentiate to functional erythrocytes was assessed by determining expression of erythrocyte-associated cell surface markers and enucleation using flow cytometry on day 12 and 18 post editing. Briefly, 4×10^5 cells were obtained, and half were stained for erythrocyte cell-surface markers and half were used for detection of enucleation. For staining cell-surface markers, the cells were incubated in PBS containing 1% human serum albumin (PBS-A) and an antibody cocktail of anti-CD233(BRIC6-Band3)-FITC, anti-CD71-PE, anti-CD235a(GlyA)-PE/Cy7, and anti-CD49d (α4)-VioBlue. For detection of enucleation, 2 drops of NucRed nuclear staining reagent was added to 1 mL PBS-A, and 100 μL was added to plated cells. Following incubation, both cell samples were labeled with Sytox Blue solution (1:1000 dilution in PBS-A) for live/dead analysis. Samples were then assessed by flow cytometry

NBSGW mice = test: In vivo engraftment and persistence of gene-edits of CD34+ HSPCs edited with T107 RNP, AAV and inhibitors (Example 6); parameters: species or system mouse; details: 16 weeks, with or without inhibitor
Experimental: Following two days of in vitro culture, HSPCs were administered by intravenous injection to NBSGW mice at a dose of 0.5×10^6 cells per mouse. Recipient mice were treated with sublethal irradiation (100 cGy) at 1 day prior to administration of HSPCs.
Blood and bone marrow were extracted at 16 weeks following HSPC administration and were evaluated for presence of human hematopoietic cells using flow cytometry as described in Example 2. Additionally, the lineage of human CD45+ cells was determined using markers for human B cells, T cells, myeloid cells, and HSPCs as described in Example 2.
The long term persistence of gene-edited (in HBB gene) HSPCs was evaluated in genomic DNA extracted from mouse bone marrow collected at 16 weeks. The frequency of donor template-encoded gene-edits incorporated in HBB by HDR and the frequency of INDELs at the T107 cut site were quantified by NGS, and are shown in FIG. 7I and FIG. 7J respectively.

[4] = T107 RNP + AAV.310 + 0.012 μM compound, 48 hours
[5] = T107 RNP + AAV.310 + 0.037 μM compound, 48 hours
[6] = T107 RNP + AAV.310 + 0.04 μM compound, 48 hours
[7] = T107 RNP + AAV.310 + 3.3 μM compound, 48 hours
[8] = T107 RNP + AAV.310 + 10 μM compound, 48 hours
[9] = T107 RNP + AAV.310 + i53 (1 μg mRNA)

| Compound | cell growth over time or percent viability vs T107 RNP+AAV.310 edited cells (CD34+ HSPCs [1]) | % HDR [2, 4] [%] | % INDELs [2, 4] [%] | % HDR [2, 5] [%] | % INDELs [2, 5] [%] | % HDR [2, 6] [%] | % INDELs [2, 6] [%] | % HDR [2, 7] [%] | % INDELs [2, 7] [%] | % HDR [2, 8] [%] | % INDELs [2, 8] [%] | reduction of the frequency of INDELs at the T107 cut site compared to control cells ([2]; T107 RNP+AAV.310 with DNA-PK inhibitor) | change in cell growth if cells were edited with the inhibitor (HBB gene in CD34+ HSPCs) | frequency of HDR relative to editing with T107 RNP and AAV only (HBB gene in CD34+ HSPCs) | frequency of INDELs relative to editing with T107 RNP and AAV only (HBB gene in CD34+ HSPCs) | levels of enucleation vs control cells (CD34+ HSPCs [3]) | percent chimerism in mouse bone marrow and blood (NBSGW mice) | % HDR [2, 9] [%] | % INDELs [2, 9] [%] | INDEL species due to MMEJ repair (deletion of −9 nt) ([2]; T107 RNP+AAV.310, Compound 296 at 10 μM, i53 at 1 μg mRNA) |
| --- | --- | --- | --- | --- | --- | --- | --- | --- | --- | --- | --- | --- | --- | --- | --- | --- | --- | --- | --- | --- |
| [2H]c1nc(C)nc([2H])c1-c1cc(NC[C@@H](C)c2cccc3c(C(=O)NC)ccnc23)ncn1 [Compound 984] | No difference | 44 | 39 | 51 | 36 | 42 | 40 | 49 | 30 | 48 | 33 | approximately 1.6 fold | no substantial change | increased | decreased | comparable | comparable |  |  |  |
| i53: polypeptide inhibitor of 53BP1 (SEQ ID NO: 11), introduced as an mRNA-encoded protein (ORF SEQ ID NO: 10) | No difference |  |  |  |  |  |  |  |  |  |  |  | no substantial change | increased | decreased | comparable | comparable | 35 | 42 | did not affect |
